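Where inhibition never reached the appropriate level, the endpoint shown equals the highest concentration tested. Otherwise, values were interpolated linearly from a five-concentration, 48-hour dose response in 96-well plates. TGI is the concentration that stops growth completely.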
How the values were obtained:
Assay in all cases: NCI-60 cell line screen, 48 h
786-0 renal = test system: 786-0 renal
A498 renal = test system: A498 renal
A549 NSCLC = test system: A549 NSCLC
ACHN renal = test system: ACHN renal
BT-549 breast = test system: BT-549 breast
CAKI-1 renal = test system: CAKI-1 renal
CCRF-CEM leukemia = test system: CCRF-CEM leukemia
COLO 205 colon = test system: COLO 205 colon
DU-145 prostate = test system: DU-145 prostate
EKVX NSCLC = test system: EKVX NSCLC
HCC-2998 colon = test system: HCC-2998 colon
HCT-116 colon = test system: HCT-116 colon
HCT-15 colon = test system: HCT-15 colon
HL-60(TB) leukemia = test system: HL-60(TB) leukemia
HOP-62 NSCLC = test system: HOP-62 NSCLC
HOP-92 NSCLC = test system: HOP-92 NSCLC
HS 578T breast = test system: HS 578T breast
HT29 colon = test system: HT29 colon
IGROV1 ovarian = test system: IGROV1 ovarian
KM12 colon = test system: KM12 colon
LOX IMVI melanoma = test system: LOX IMVI melanoma
M14 melanoma = test system: M14 melanoma
MALME-3M melanoma = test system: MALME-3M melanoma
MCF7 breast = test system: MCF7 breast
MDA-MB-231 breast = test system: MDA-MB-231 breast
MDA-MB-435 = test system: MDA-MB-435
MDA-N = test system: MDA-N
MOLT-4 leukemia = test system: MOLT-4 leukemia
NCI-H226 lung = test system: NCI-H226 lung
NCI-H23 lung = test system: NCI-H23 lung
NCI-H460 lung = test system: NCI-H460 lung
NCI-H522 lung = test system: NCI-H522 lung
NCI/ADR-RES ovarian = test system: NCI/ADR-RES ovarian
OVCAR-3 ovarian = test system: OVCAR-3 ovarian
OVCAR-4 ovarian = test system: OVCAR-4 ovarian
OVCAR-5 ovarian = test system: OVCAR-5 ovarian
OVCAR-8 ovarian = test system: OVCAR-8 ovarian
PC-3 prostate = test system: PC-3 prostate
RPMI-8226 leukemia = test system: RPMI-8226 leukemia
RXF 393 renal = test system: RXF 393 renal
SF-268 CNS = test system: SF-268 CNS
SF-295 CNS = test system: SF-295 CNS
SF-539 CNS = test system: SF-539 CNS
SK-MEL-2 melanoma = test system: SK-MEL-2 melanoma
SK-MEL-28 melanoma = test system: SK-MEL-28 melanoma
SK-MEL-5 melanoma = test system: SK-MEL-5 melanoma
SK-OV-3 ovarian = test system: SK-OV-3 ovarian
SN12C renal = test system: SN12C renal
SNB-19 CNS = test system: SNB-19 CNS
SNB-75 CNS = test system: SNB-75 CNS
SR leukemia = test system: SR leukemia
SW-620 colon = test system: SW-620 colon
T-47D breast = test system: T-47D breast
TK-10 renal = test system: TK-10 renal
U251 CNS = test system: U251 CNS
UACC-257 melanoma = test system: UACC-257 melanoma
UACC-62 melanoma = test system: UACC-62 melanoma
UO-31 renal = test system: UO-31 renal
K-562 leukemia = test system: K-562 leukemia

COc1ccc(P2(=S)SP(=S)(c3ccc(Cl)cc3)S2)cc1 (centres undefined)
TGI (786-0 renal): > 100 µM | TGI (A498 renal): > 100 µM | TGI (A549 NSCLC): > 100 µM | TGI (ACHN renal): > 100 µM | TGI (BT-549 breast): > 100 µM | TGI (CAKI-1 renal): > 100 µM | TGI (CCRF-CEM leukemia): > 100 µM | TGI (COLO 205 colon): > 100 µM | TGI (DU-145 prostate): > 100 µM | TGI (EKVX NSCLC): > 100 µM | TGI (HCC-2998 colon): > 100 µM | TGI (HCT-116 colon): > 100 µM | TGI (HCT-15 colon): > 100 µM | TGI (HL-60(TB) leukemia): > 100 µM | TGI (HOP-62 NSCLC): > 100 µM | TGI (HOP-92 NSCLC): > 100 µM | TGI (HS 578T breast): > 100 µM | TGI (HT29 colon): > 100 µM | TGI (IGROV1 ovarian): > 100 µM | TGI (KM12 colon): > 100 µM | TGI (LOX IMVI melanoma): > 100 µM | TGI (M14 melanoma): > 100 µM | TGI (MALME-3M melanoma): > 100 µM | TGI (MCF7 breast): > 100 µM | TGI (MDA-MB-231 breast): > 100 µM | TGI (MDA-MB-435): > 100 µM | TGI (MDA-N): > 100 µM | TGI (MOLT-4 leukemia): > 100 µM | TGI (NCI-H226 lung): > 100 µM | TGI (NCI-H23 lung): > 100 µM | TGI (NCI-H460 lung): > 100 µM | TGI (NCI-H522 lung): > 100 µM | TGI (NCI/ADR-RES ovarian): > 100 µM | TGI (OVCAR-3 ovarian): > 100 µM | TGI (OVCAR-4 ovarian): > 100 µM | TGI (OVCAR-5 ovarian): > 100 µM | TGI (OVCAR-8 ovarian): > 100 µM | TGI (PC-3 prostate): > 100 µM | TGI (RPMI-8226 leukemia): > 100 µM | TGI (RXF 393 renal): > 100 µM | TGI (SF-268 CNS): > 100 µM | TGI (SF-295 CNS): > 100 µM | TGI (SF-539 CNS): > 100 µM | TGI (SK-MEL-2 melanoma): > 100 µM | TGI (SK-MEL-28 melanoma): > 100 µM | TGI (SK-MEL-5 melanoma): > 100 µM | TGI (SK-OV-3 ovarian): > 100 µM | TGI (SN12C renal): > 100 µM | TGI (SNB-19 CNS): > 100 µM | TGI (SNB-75 CNS): > 100 µM | TGI (SR leukemia): > 100 µM | TGI (SW-620 colon): > 100 µM | TGI (T-47D breast): > 100 µM | TGI (TK-10 renal): > 100 µM | TGI (U251 CNS): > 100 µM | TGI (UACC-257 melanoma): > 100 µM | TGI (UACC-62 melanoma): > 100 µM | TGI (UO-31 renal): > 100 µM

O=S(=O)(c1ccc(Br)cc1)N1CCN(S(=O)(=O)c2ccc(Br)cc2)CC1
TGI (786-0 renal): > 100 µM | TGI (A498 renal): > 100 µM | TGI (A549 NSCLC): > 100 µM | TGI (ACHN renal): > 100 µM | TGI (BT-549 breast): > 100 µM | TGI (CAKI-1 renal): > 100 µM | TGI (CCRF-CEM leukemia): > 100 µM | TGI (COLO 205 colon): > 100 µM | TGI (DU-145 prostate): > 100 µM | TGI (EKVX NSCLC): > 100 µM | TGI (HCT-116 colon): > 100 µM | TGI (HCT-15 colon): > 100 µM | TGI (HL-60(TB) leukemia): > 100 µM | TGI (HOP-62 NSCLC): > 100 µM | TGI (HOP-92 NSCLC): > 100 µM | TGI (HS 578T breast): > 100 µM | TGI (HT29 colon): > 100 µM | TGI (IGROV1 ovarian): > 100 µM | TGI (K-562 leukemia): > 100 µM | TGI (KM12 colon): > 100 µM | TGI (LOX IMVI melanoma): > 100 µM | TGI (M14 melanoma): > 100 µM | TGI (MALME-3M melanoma): > 100 µM | TGI (MCF7 breast): > 100 µM | TGI (MDA-MB-231 breast): > 100 µM | TGI (MDA-MB-435): > 100 µM | TGI (MDA-N): > 100 µM | TGI (MOLT-4 leukemia): 26.7 µM | TGI (NCI-H226 lung): > 100 µM | TGI (NCI-H23 lung): > 100 µM | TGI (NCI-H522 lung): > 100 µM | TGI (NCI/ADR-RES ovarian): > 100 µM | TGI (OVCAR-3 ovarian): > 100 µM | TGI (OVCAR-4 ovarian): > 100 µM | TGI (OVCAR-5 ovarian): > 100 µM | TGI (OVCAR-8 ovarian): > 100 µM | TGI (PC-3 prostate): > 100 µM | TGI (RPMI-8226 leukemia): > 100 µM | TGI (RXF 393 renal): > 100 µM | TGI (SF-268 CNS): > 100 µM | TGI (SF-295 CNS): > 100 µM | TGI (SK-MEL-2 melanoma): > 100 µM | TGI (SK-MEL-28 melanoma): > 100 µM | TGI (SK-MEL-5 melanoma): > 100 µM | TGI (SK-OV-3 ovarian): > 100 µM | TGI (SN12C renal): > 100 µM | TGI (SNB-19 CNS): > 100 µM | TGI (SNB-75 CNS): > 100 µM | TGI (SR leukemia): > 100 µM | TGI (SW-620 colon): > 100 µM | TGI (T-47D breast): > 100 µM | TGI (TK-10 renal): > 100 µM | TGI (U251 CNS): > 100 µM | TGI (UACC-257 melanoma): > 100 µM | TGI (UACC-62 melanoma): > 100 µM | TGI (UO-31 renal): > 100 µM
